Measurements published in patent US20080125498A1, “TREATMENT OF NEURODEGENERATIVE DISEASES AND CONDITIONS USING PAR1 ANTAGONISTS” (priority 2001, published 2008).
Square brackets hold non-standard residues; d marks the D form. * marks the point of attachment. Phe(4-guanidino) = N=C(N)Nc1ccc(C[C@H](N)C(=O)O)cc1; Phe(4-F) = N[C@@H](Cc1ccc(F)cc1)C(=O)O; trans‑cinnamoyl = O=C(/C=C/c1ccccc1)*

Experiments:
NMDA receptor [1] = experiment: Whole cell patch recording of NMDA-evoked currents in hippocampal slice CA1 pyramidal neurons; format: cell-based, rat
NMDA receptor [2] = experiment: Whole cell patch recording of NMDA-evoked currents in hippocampal CA1 pyramidal cells of wild-type and PAR1-/- mice; format: cell-based, mouse; settings: 100 micromolar APV, wild-type and PAR1-/- mice
PAR1 [3] = experiment: Free intracellular calcium in cultured astrocytes (Fluo-3 AM); format: cell-based, mouse
PAR1 [4] = format: cell-based, rat
PAR1 [5] = experiment: PI hydrolysis in hippocampal slices; format: cell-based, mouse; settings: pre-incubation with antagonist peptide
Description: PAR1 is a seven transmembrane G-protein coupled receptor that stimulates G-alpha-q to initiate phosphatidyl inositol (PI) hydrolysis. To ensure that PAR1 is functional in regions of the brain that are subject to ischemic damage in the mouse transient focal ischemia model, we tested the ability of several activators of PAR1 to initiate PI hydrolysis (Chung et al., 1997) in the hippocampus and striatum.
Since tPA activates plasminogen to form plasmin, we tested whether exogenously applied tPA could activate endogenous plasminogen in brain slices to form plasmin and activate PAR1.

NR1 subunit = experiment: NMDA receptor subunit immunoblots of thrombin-treated brain membranes; format: biochemical, rat; settings: 0.1-1 mM SFLLRN
Experimental: NMDA receptor subunit immunoblots. Human embryonic kidney (HEK) cells were maintained in DMEM supplemented with 0.5 mM glutamine, 1 mM pyruvate, penicillin, streptomycin, and 10% fetal bovine serum in a humidified environment with 5% CO2, and transfected with 1 microgram/ml of NR1 or 1:2 microgram/ml NR1:NR2 cDNA. Cells were washed in ice-cold HEPES buffered saline (HBS), scraped on ice, and membranes isolated by centrifugation at 12,000×g. […] Adult rat brain regions were dissected, frozen in liquid nitrogen, homogenized in ice-cold HEPES buffered saline (HBS), centrifuged, and stored at −20° C. Membranes were resuspended in HBS and treated with thrombin or buffer for 30 min at 37° C. Samples were centrifuged, and the membrane pellet resuspended in 2% sodium dodecylsulphate (SDS), 62.5 mM Tris, 10% glycerol, 5% beta-mercaptoethanol, 0.05% bromophenol blue (pH 6.8); some samples were treated with IOU DNase for 10 min at 37° C. SDS/polyacrylamide gel electrophoresis (SDS/PAGE) and protein blotting to Immobilon-P membranes was performed as described (Lau and Huganir, Differential tyrosine phosphorylation of N-methyl-D-aspartate receptor subunits. J Biol Chem 270: 20036-20041, 1995). Membranes were blocked for 30 min in 0.2 M Tris base, 1.37 M NaCl, pH 7.4, containing 5% nonfat dry milk, and incubated overnight at 4° C. in primary antibodies: NR1 mAb54.1 (gift from Dr. S. Heinemann, Salk Institute, La Jolla Calif.), NR1 alt-C-terminal (Upstate Biotechnology, Lake Placid, N.Y.), NR2A C-terminal (Chemicon, Temecula, Calif.), or NR2B C-terminal (Upstate Biotechnology). Membranes were washed 3×, and incubated with HRP-conjugated goat anti-mouse or goat anti-rabbit antibodies (1:10,000), washed 3×, and developed using enhanced chemiluminescence. The percent of receptor cleaved by thrombin was determined using densitometry.

NMDA receptor [6] = experiment: Two electrode voltage clamp of recombinant NMDA receptors with or without PAR1 in Xenopus oocytes; format: cell-based, Xenopus laevis
Experimental: Expression and recording of NMDA and PAR1 receptor function in Xenopus laevis oocvtes. cRNA was synthesized from linearized template cDNA according to manufacturer specifications (Ambion, Austin, Tex.). Xenopus oocytes were removed from ovaries of female frogs anesthetized with 0.3% 3-aminobenzoic acid ethylester. Groups of 20-30 stage V-VI oocytes were incubated in 292 U/ml Worthington (Freehold, N.J.) Type IV collagenase for 2 hours with slow shaking. The oocytes were rinsed in Barth's solution, and stored at 17° C. in Barth's solution supplemented with 100 microgram/ml gentamycin and 40 microgram/ml streptomycin. Control oocytes were injected with 3 ng NR1 subunit and 7 ng NR2B subunit. Other oocytes were injected with the NMDA receptor subunits plus 3 ng PAR1 cRNA. Two electrode voltage clamp recordings were made 3-7 days post-injection. Oocytes were continually perfused with recording solution (in mM, 90 NaCl, 1 KCl, 10 HEPES, pH 7.4) and held under voltage clamp at −30 to −50 mV with an OC-725B amplifier (Warner Instruments, Hamden, Conn.). Recording solution was supplemented with 1.0 mM CaCl2 during initial impalement of the oocytes and subsequently 0.5 mM BaCl2 during recording to reduce the calcium-activated chloride current endogenous to oocytes. […] NMDA receptor currents were evoked by 20 micromolar glutamate/10 micromolar glycine perfused for 0.5-1 minute. […] Expression of PAR1 protein was verified by a thrombin or SFLLRN-stimulated rapidly desensitizing inward current at −30 mV that reflects the Ca^2+-activated Cl^− current endogenous to the oocyte. To test the ability of thrombin to modify NMDA receptor function in oocytes, recordings of receptor function were made both before and after a 15-60 min incubation in recording solution supplemented with thrombin in Eppendorf tubes at room temperature. […] Oocytes with responses less than 50 nA were not included in the analysis.

Molecule: N[C@H](CCCP(=O)(O)O)C(=O)O [APV, D-2-amino-5-phosphonovaleric acid, reference compound]
- block of responses to NMDA/glycine (NMDA receptor [1]; 100 micromolar APV): blocked the response
- block of NMDA receptor response following thrombin treatment (NMDA receptor [2]): abolished

Molecule: Nc1ncnc2c1ncn2[C@@H]1O[C@H](COP(=O)(O)OP(=O)(O)OP(=O)(O)O)[C@@H](O)[C@H]1O [ATP]
- free intracellular calcium (PAR1 [3]; cultured astrocytes from PAR1-/- knockout mice): increases free intracellular calcium
- free intracellular calcium (PAR1 [3]; cultured astrocytes from wild type mice): increases free intracellular calcium

Molecule: NC(N)=NCCC[C@H](NC(=O)[C@@H]1CCCN1C(=O)[C@H](N)Cc1ccccc1)C(=O)CCl [PPACK, D-Phe-Pro-Arg-chloromethylketone]
- response magnitude to thrombin (F/Fo) with PPACK (PAR1 [4]): 1.1±0.04 fold

Molecule: N-trans-cinnamoyl-p-fluoroPhe-p-guanidinoPhe-Leu-Arg-Arg-NH2 ({trans‑cinnamoyl}-[Phe(4-F)][Phe(4-guanidino)]LRR-NH2; SMILES CC(C)C[C@H](NC(=O)[C@H](Cc1ccc(NC(=N)N)cc1)NC(=O)[C@H](Cc1ccc(F)cc1)NC(=O)/C=C/c1ccccc1)C(=O)N[C@@H](CCCNC(=N)N)C(=O)N[C@@H](CCCNC(=N)N)C(N)=O) [PAR1 antagonist peptide, reference compound]
- inhibition of PI hydrolysis produced by thrombin and plasmin (PAR1 [5]): inhibited PI hydrolysis

Molecule: SFLLRN [reference compound]
- potentiation of the response to pressure applied NMDA plus glycine (NMDA receptor [1]; 30 micromolar SFLLRN, n=9): 1.76±0.19 fold
- stimulation of NR1 cleavage (NR1 subunit): did not stimulate cleavage
- potentiation of NMDA receptor current after SFLLRN stimulation of PAR1 (NMDA receptor [6]; NR1-1a/NR2B plus PAR1, 10-30 micromolar SFLLRN, n=9): 1.41±0.11 fold
- SFLLRN potentiation of NR1-1a/NR2A receptors (NMDA receptor [6]; oocytes with PAR1, 10-30 micromolar SFLLRN, n=6): 1.85±0.1 fold
- Fluo-3 fluorescence in soma and dendrites (PAR1 [4]; 3 nM thrombin or 10 micromolar SFLLRN, TTX/APV present, subset of neurons): robust increase
